In publication PMC6216040, “Repurposing of an old drug: In vitro and in vivo efficacies of buparvaquone against Echinococcus multilocularis” (International Journal for Parasitology: Drugs and Drug …, 2018):
In brackets after ≈: the same amount, converted by molar mass. Where two headings read alike, the source gives them in different places.

How the values were obtained:
[1] = test system: E. multilocularis metacestodes; test: BPQ treatment of E. multilocularis infected mice; assay type: in vivo, Balb/c mice
Procedure: Balb/c mice, 6 weeks old, were purchased from Charles River Laboratories (Sulzheim, Germany) and used for in vivo experiments when they were 8 weeks old and weighted approximately 20 g. The mice were housed in a type 3 cage containing enrichment in the form of a cardboard house and paper and woodchip bedding with a maximum of seven mice per cage. […] Food and water was provided ad libitum. Experimentally infected mice were treated with BPQ to elucidate the efficacy of the drug in vivo. To infect mice, in vitro grown E. multilocularis metacestodes (isolate […]) were washed in PBS, were mechanically destroyed by pipetting and the resulting suspension was centrifuged for 5 min at 500 g. The parasite tissue was then taken up in an equal volume of PBS. Each mouse was subsequently infected intraperitoneally (i.p.) with 200 μl of this suspension. […] infected mice were randomly distributed into 3 treatment groups (8 animals per group) with 4 animals per cage. […] Treatments of mice started 2 weeks post-infection and lasted for 4 weeks, with consecutive treatment of mice for 5 days per week, followed by an interruption of treatment for 2 days for recovery. All treatments were administered by oral gavage in a volume of 50 μl, with ABZ and BPQ being suspended in corn oil. After four weeks, all mice were anesthetized with isoflurane and subsequently euthanized by CO2. The parasitic tissue from each mouse was completely resected and weighed. The mass of the resected parasitic tissue was used for statistical analyses of the experiment. […] The significance level was set to p < 0.05. Figures were prepared in R and Adobe Illustrator 2015.1.0.

E. granulosus = test system: E. granulosus; parameters: method as in Kammerer and Perez-Esandi, 1975; Miyaji et al., 1993; details: ref Kammerer and Perez-Esandi, 1975; Miyaji et al., 1993; cited from earlier work
[2] = test system: E. multilocularis metacestodes; test: PGI-assay: drug-induced damage on in vitro cultured metacestodes (Pathogen Box screening cascade and EC50); assay type: cell-based, Echinococcus multilocularis; details: for activity in the present in vitro screen (threshold 20% relative activity compared to Tx-100) / activity in the screen at 10 μM (confirmed in triplicates, >20% relative PGI release): 10 μM; for activity against metacestodes at 1 μM / PGI release, % of Tx-100 control, average, 5d / PGI release, % of Tx-100 control, average, 12d: triplicates; for PGI release, % of Tx-100 control, average, 5d / PGI release, % of Tx-100 control, average, 12d: 1 µM; for activity in the screen at 10 μM (confirmed in triplicates, >20% relative PGI release): 5 and 12 days; for toxicity against E. multilocularis metacestodes compared with host cells (HFF, RH): comparison of EC50 with IC50 on mammalian cells
[3] = test system: human foreskin fibroblasts (HFF); test: Cytotoxicity by Alamar Blue assay in human foreskin fibroblasts; details: for IC50: Homo sapiens, Fibroblast, 120 h
[4] = test system: E. multilocularis metacestodes; test: Vesicle viability assay by Alamar Blue (MIC); assay type: cell-based, Echinococcus multilocularis
Procedure: The setup was the same as for PGI-assay EC50 calculations and it was performed in triplicates. […] Data was used to calculate the minimal inhibitory concentrations (MICs) of these compounds on metacestodes.

[5] = test system: Reuber rat hepatoma (RH) cells; test: Cytotoxicity by Alamar Blue assay in rat hepatoma cells; assay type: cell-based; details: 120 h
[6] = test system: human foreskin fibroblasts (HFF); parameters: method as in Stadelmann et al., 2016; details: ref Stadelmann et al., 2016; cited from earlier work
[7] = Echinococcus multilocularis, 120 h, 10 µM, singlets, 5 days of incubation, read-out: PGI release, % of the Tx-100 control, 5d
[8] = Echinococcus multilocularis, 288 h, 10 µM, singlets, 12 days of incubation, read-out: PGI release, % of the Tx-100 control, 12d
[9] = read-out: HFF preconfluent IC50
[10] = Echinococcus multilocularis, 288 h, read-out: E. multilocularis MIC, Alamar Blue vesicle viability assay, 12 days of incubation
[11] = Echinococcus multilocularis, 120 h, read-out: PGI release, % of Tx-100 control, average, 5d
[12] = Echinococcus multilocularis, 120 h, read-out: PGI release, % of the Tx-100 control, 5d
[13] = Echinococcus multilocularis, 288 h, read-out: PGI release, % of Tx-100 control, average, 12d
[14] = Echinococcus multilocularis, 288 h, read-out: PGI release, % of the Tx-100 control, 12d

## CCCSc1ccc2nc(NC(=O)OC)[nH]c2c1 [ABZ, albendazole]
[1]; p.o. in corn oil, 5 days per week, 4 weeks, BPQ 100 mg/kg, ABZ 200 mg/kg
  parasite burden compared to the control: significant reduction
[1]; whole course of treatment, 4 weeks p.o.
  adverse effects due to treatment: None of the mice showed signs of adverse effects

## N=C(N)c1ccc(OCCCCCOc2ccc(C(=N)N)cc2)cc1 [MMV000062, Pentamidine, reference compound]
E. granulosus
  effect in vivo against E. granulosus: did not show any effects
[2]
  activity in the present in vitro screen (threshold 20% relative activity compared to Tx-100): inactive
[2]; [7]
  cytotoxicity at 10 µM: -1%
[2]; [8]
  cytotoxicity at 10 µM: -1.06%

## NCCC[C@](N)(C(=O)O)C(F)F [MMV001625, alpha-Difluoromethylornithine, reference compound]
E. granulosus
  effect in vivo against E. granulosus: did not show any effects
[2]
  activity in the present in vitro screen (threshold 20% relative activity compared to Tx-100): inactive
[2]; 10 µM, singlets, 5 days of incubation
  PGI release, % of the Tx-100 control, 5d: -0.43%
[2]; 10 µM, singlets, 12 days of incubation
  PGI release, % of the Tx-100 control, 12d: -0.93%

## c1ccc(-c2nc(NC3CCCCC3)cc(C3CC3)n2)nc1 [MMV021013]
[3]; read-out: HFF confluent IC50
  IC50: 53100 nM
[3]; [9]
  IC50: 5140 nM
[4]; [10]
  MIC: 20 µM (≈ 5.89 µg/mL)
[2]
  activity against metacestodes at 1 μM: distinct in vitro activities
  activity in the screen at 10 μM (confirmed in triplicates, >20% relative PGI release): active
  toxicity against E. multilocularis metacestodes compared with host cells (HFF, RH): as toxic to host cells as it was to E. multilocularis metacestodes
[2]; 5 days of incubation
  PGI release, % of Tx-100 control, average, 5d: 3.92%
[2]; 12 days of incubation
  PGI release, % of Tx-100 control, average, 12d: 24.95%
[2]; Echinococcus multilocularis, 120 h, read-out: E. multilocularis EC50, PGI-assay, 5 days in vitro
  EC50: 15800 nM
[2]; [11]
  cytotoxicity at 10 µM: 37.8%
[2]; [12]
  cytotoxicity at 10 µM: 34.8%
[2]; [13]
  cytotoxicity at 10 µM: 42.3%
[2]; [14]
  cytotoxicity at 10 µM: 92%
[5]; read-out: RH confluent IC50
  IC50: 2070 nM
[5]; read-out: RH preconfluent IC50
  IC50: 1100 nM

## Cc1ccc(C(=O)Nc2ccc(S(=O)(=O)O)c3cc(S(=O)(=O)O)cc(S(=O)(=O)O)c23)cc1NC(=O)c1cccc(NC(=O)Nc2cccc(C(=O)Nc3cc(C(=O)Nc4ccc(S(=O)(=O)O)c5cc(S(=O)(=O)O)cc(S(=O)(=O)O)c45)ccc3C)c2)c1 [MMV637953, Suramin, reference compound]
E. granulosus
  effect in vivo against E. granulosus: did not show any effects
[2]
  activity in the present in vitro screen (threshold 20% relative activity compared to Tx-100): inactive
[2]; [7]
  cytotoxicity at 10 µM: 0.85%
[2]; [8]
  cytotoxicity at 10 µM: 0.51%

## O=C(Nc1cccc(C(F)(F)F)c1)c1cc(Cl)ccc1O [MMV665807]
[6]
  toxicity against HFF: did not exhibit any specific toxicity

## Cc1[nH]c2cc(F)cc(F)c2c(=O)c1-c1ccc(Oc2ccc(OC(F)(F)F)cc2)cc1 [MMV671636, ELQ-400]
[3]; read-out: HFF confluent IC50
  IC50: 74800 nM
[3]; [9]
  IC50: 12300 nM
[4]; Alamar Blue vesicle viability assay, 12 days of incubation, listed as MMV671363
  E. multilocularis MIC: below 1 μM
[4]; Alamar Blue vesicle viability assay, 12 days of incubation, read-out: E. multilocularis MIC
  MIC: 0.01 µM (≈ 0.00447 µg/mL)
[2]
  activity against metacestodes at 1 μM: distinct in vitro activities
  activity in the screen at 10 μM (confirmed in triplicates, >20% relative PGI release): active
  toxicity against E. multilocularis metacestodes compared with host cells (HFF, RH): specific toxicity
[2]; 5 days of incubation
  PGI release, % of Tx-100 control, average, 5d: 56.00%
[2]; 12 days of incubation
  PGI release, % of Tx-100 control, average, 12d: 70.43%
[2]; [11]
  cytotoxicity at 10 µM: 5.44%
[2]; [12]
  cytotoxicity at 10 µM: 6.52%
[2]; [13]
  cytotoxicity at 10 µM: 76.1%
[2]; [14]
  cytotoxicity at 10 µM: 24%
[2]; Echinococcus multilocularis, read-out: IC50 against in vitro cultured E. multilocularis metacestodes
  IC50: 20 nM
[2]; read-out: E. multilocularis EC50, PGI-assay, 5 days in vitro
  EC50: 20 nM
[2]; read-out: E. multilocularis EC50, PGI-assay, 5 days in vitro, listed as MMV671363
  EC50: < 1000 nM
[5]; read-out: RH confluent IC50
  IC50: 2070 nM
[5]; read-out: RH preconfluent IC50
  IC50: 250 nM

## O=C(Nc1cc(C(F)(F)F)cc(C(F)(F)F)c1)c1cc(Cl)ccc1O [MMV687807]
[3]; read-out: HFF confluent IC50
  IC50: 370 nM
[3]; [9]
  IC50: 150 nM
[3]; among the four compounds
  toxicity against HFF (in words): highest toxicity against HFF
[4]; [10]
  MIC: < 1 µM
[2]
  activity against metacestodes at 1 μM: distinct in vitro activities
  activity in the screen at 10 μM (confirmed in triplicates, >20% relative PGI release): active
  toxicity against E. multilocularis metacestodes compared with host cells (HFF, RH): could only exhibit a potential therapeutic window for RH cells
[2]; 5 days of incubation
  PGI release, % of Tx-100 control, average, 5d: 40.83%
[2]; 12 days of incubation
  PGI release, % of Tx-100 control, average, 12d: 59.00%
[2]; [11]
  cytotoxicity at 10 µM: 58.5%
[2]; [12]
  cytotoxicity at 10 µM: 30.8%
[2]; [13]
  cytotoxicity at 10 µM: 74.5%
[2]; [14]
  cytotoxicity at 10 µM: 64.7%
[5]; read-out: RH confluent IC50
  IC50: 20100 nM
[5]; read-out: RH preconfluent IC50
  IC50: 1270 nM
